Data on four compounds can be found in USRE46943E1, “Radioprotector compounds and methods” (PETER MACCALLUM CANCER INSTITUTE, priority 2010, dated 2018).

In data set [1] the test system is transformed human keratinocyte cell line (FEP 1811). The data set is described as follows: Clonogenic survival cell culture assay for cytotoxicity. Format: cell-based. To be noted: Homo sapiens, Keratinocyte, light or radiation study; un-irradiated keratinocytes, one hour drug exposure, colonies counted after eight days; read-out: C50 (concentration of radioprotector that results in 50% clonogenic survival). The method, boiled down:
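Mid-log monolayers exposed to test drug for 1 h, then pronase-dispersed and plated; colonies counted after 8 days. For […], irradiation at 0.6 Gy per minute began 30 min after drug addition, with total drug exposure held at 60 min before plating for clonogenic survival.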

The test system is the same in data set [2]. The data set is described as follows: Clonogenic survival cell culture assay for radioprotective activity (12 Gy 137Cs gamma irradiation). Format: cell-based. As to conditions: 12 Gy; for DMF10 (dose modification factor at a concentration of 10 microM of radioprotector): 10 microM radioprotector; for DMFm (dose modification factor at maximum protection): DMF=Dp/Dc at survival level Sm; for PF (protection factor = Sm/So): survival at maximum protection vs irradiation only. The method, boiled down:
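Survival after irradiation gave protection factor PF = Sm/So (maximum-protection survival over irradiation-only survival). DMF = Dp/Dc is the ratio of doses giving survival Sm with and without radioprotector. DMF10 uses survival at 10 microM radioprotector in place of Sm.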

For data set [3], the system named is mice. The experiment in a line: Radioprotection of mouse jejunum, subcutaneous administration: local reaction at injection site. Format: in vivo. To be noted: subcutaneous solutions in polyethylene glycol (MW 400), similar experiments with the jejunum model. Here is the method: 2-Hydroxypropyl-β-cyclodextrin (HPCD, Sigma-Aldrich, typical MW 1540) vehicle solution was prepared by dissolving 3.6 g of HPCD in 9.3 mL of phosphate buffered saline (PBS) resulting in 30% v/w solution. […] The concentration of M2PB was measured following appropriate dilution in 45% MeOH 0.1% TFA using an extinction coefficient […] at 345 nm. The M2PB/HPCD stock was diluted to 8.75 mg/mL (22 mM) in HPCD vehicle to produce the final M2PB/HPCD formulation, which was injected subcutaneously into mice, between the shoulder blades (scruff of the neck) at a volume of 8×10^−3 ml/g body weight.
The subsequent irradiation and analysis was as described for Example 56.

What is called melting point is the temperature of the solid-liquid transition.

Turning to `CN1CCN(c2ccc3nc(-c4ccc5nc(-c6ccc(C(F)(F)F)cn6)[nH]c5c4)[nH]c3c2)CC1` [Example 49, 2-(5′-(5″-(4′″-methylpiperazin-1′″-yl)benzimidazol-2″-yl)benzimidazol-2′-yl)-5-(trifluoromethyl)pyridine], the melting point was 320 °C (dec.). The IC50 in data set [1] was 12.2 µM. Further, in data set [2], the “DMF10 (dose modification factor at a concentration of 10 microM of radioprotector)” value is reported as 2.21, the “DMFm (dose modification factor at maximum protection)” value worked out at 2.38 and the “PF (protection factor = Sm/So)” value is listed as 33.1.
Take `Cc1ccnc(-c2nc3ccc(-c4nc5ccc(N6CCC(O)CC6)cc5[nH]4)cc3[nH]2)c1` [Example 50, 2-(5′-(5″-(4′″-hydroxypiperidin-1′″-yl)benzimidazol-2″-yl)benzimidazol-2′-yl)-4-methylpyridine]: the melting point was 204 to 209 °C. Also, the IC50 in data set [1] is 134 µM. Further, in data set [2], the “DMF10 (dose modification factor at a concentration of 10 microM of radioprotector)” value was 1.33, the “DMFm (dose modification factor at maximum protection)” value was 1.79 and the “PF (protection factor = Sm/So)” value was 23.5.
In the same order, the values of `Cc1ccc(-c2nc3ccc(-c4nc5ccc(N6CCC(O)CC6)cc5[nH]4)cc3[nH]2)nc1` [Example 51, 2-(5′-(5″-(4′″-hydroxypiperidin-1′″-yl)benzimidazol-2″-yl)benzimidazol-2′-yl)-5-methylpyridine] are 208 to 213 °C, 124 µM, 1.90, 2.07 and 58.7.
Take `Cc1cc(N(C)C)ccc1-c1nc2ccc(-c3nc4ccc(N5CCN(C)CC5)cc4[nH]3)cc2[nH]1` [methylproamine, reference compound]: the “local reaction or toxicity at the site of subcutaneous injection” value in data set [3] was “had been observed”.
